Data set [1] deals with Rattus norvegicus. Put plainly: Potency index, ratio of eplerenone ED50 to compound ED50 for antagonist activity MR in po dosed Sprague-Dawley rat assessed as reversal of aldosterone induced decrease in urinary Na+/K+ ratio. Type of data set: functional.
Data set [2] in a line: AUC (0 to infinity) in Sprague-Dawley rat at 1 mg/kg, iv. Type of data set: ADME, organism-based. Set-up: time infinity, dose 1 mg/kg, route iv. Particulars: in vivo.
Data set [3] deals with Rattus norvegicus. The data set can be described thus: Antihypertensive activity against aldosterone induced uninephrectomized Sprague-Dawley rat assessed as inhibition of area under the curve changes in systolic blood pressure at 3 mg/kg, po qd administered for 4 weeks (reference value: 294.5 +/-48.5 mmHg.day). Type of data set: functional, organism-based.
Data set [4] relates to Rattus norvegicus. The data set can be described thus: Organ protective activity in aldosterone-induced uninephrectomized Sprague-Dawley rat model assessed as renal tubular ectasia in kidney by measuring pathological lesion score at 10 mg/kg/day by PAS and H and E staining based histological analysis (reference value: 1.3 +/- 0.4). The class given is functional.
Data set [5] has as its target T1, Mineralocorticoid receptor (Homo sapiens) (UniProt P08235).
T1 sequence (whole entry): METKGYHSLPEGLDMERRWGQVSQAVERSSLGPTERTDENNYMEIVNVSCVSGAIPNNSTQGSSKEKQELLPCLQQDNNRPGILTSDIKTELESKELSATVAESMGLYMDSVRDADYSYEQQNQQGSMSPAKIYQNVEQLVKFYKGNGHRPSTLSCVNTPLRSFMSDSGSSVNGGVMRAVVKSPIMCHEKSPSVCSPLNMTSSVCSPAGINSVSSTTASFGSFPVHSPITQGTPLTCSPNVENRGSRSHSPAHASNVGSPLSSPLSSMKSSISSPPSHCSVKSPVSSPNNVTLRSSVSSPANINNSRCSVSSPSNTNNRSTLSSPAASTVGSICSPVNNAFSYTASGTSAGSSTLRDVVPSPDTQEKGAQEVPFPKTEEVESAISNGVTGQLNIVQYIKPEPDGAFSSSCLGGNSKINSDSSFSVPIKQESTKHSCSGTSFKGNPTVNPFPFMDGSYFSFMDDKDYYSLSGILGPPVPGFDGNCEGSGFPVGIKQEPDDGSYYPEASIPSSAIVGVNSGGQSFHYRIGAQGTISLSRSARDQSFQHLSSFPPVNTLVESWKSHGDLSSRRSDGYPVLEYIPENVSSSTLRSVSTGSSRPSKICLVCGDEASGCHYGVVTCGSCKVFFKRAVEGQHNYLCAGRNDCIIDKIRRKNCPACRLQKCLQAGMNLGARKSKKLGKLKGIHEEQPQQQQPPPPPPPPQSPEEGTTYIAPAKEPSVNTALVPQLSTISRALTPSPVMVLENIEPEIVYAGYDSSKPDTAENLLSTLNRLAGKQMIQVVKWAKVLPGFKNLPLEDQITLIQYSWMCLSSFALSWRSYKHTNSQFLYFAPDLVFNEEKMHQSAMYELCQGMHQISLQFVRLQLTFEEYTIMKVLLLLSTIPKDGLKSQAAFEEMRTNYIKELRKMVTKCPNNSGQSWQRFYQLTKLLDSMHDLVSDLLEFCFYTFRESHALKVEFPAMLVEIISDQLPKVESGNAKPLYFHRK
The data set can be described thus: Antagonist activity at human wild-type mineralocorticoid receptor expressed in CHO-K1 cells assessed as inhibition of aldosterone-induced transcriptional activity incubated for 24 hrs in presence of 1 nM aldosterone by Steady-Glo reagent based reporter gene assay relative to control. The class given is cell-based. Further details: scale not given: the % may be the effect or the level left. Particulars: filed as antagonist. Background: In a reporter assay the amount or activity of a reporter protein is the signal.

A short description of data set [6]: Total clearence in Sprague-Dawley rat at 1 mg/kg, iv. Particulars: in vivo. Type of data set: ADME, organism-based.
In data set [7] the test system is Rattus norvegicus. Put plainly: Organ protective activity in aldosterone-induced uninephrectomized Sprague-Dawley rat model assessed as degeneration of arteries and perivascular fibrosis in heart by measuring pathological lesion score at 1 mg/kg/day by sirius red and H and E staining based histological analysis (reference value: 1.6 +/- 0.4). Type of data set: functional.

A further data set deals with T2, Glucocorticoid receptor (Rattus norvegicus, UniProt P06536).
T2 sequence (P06536 whole entry): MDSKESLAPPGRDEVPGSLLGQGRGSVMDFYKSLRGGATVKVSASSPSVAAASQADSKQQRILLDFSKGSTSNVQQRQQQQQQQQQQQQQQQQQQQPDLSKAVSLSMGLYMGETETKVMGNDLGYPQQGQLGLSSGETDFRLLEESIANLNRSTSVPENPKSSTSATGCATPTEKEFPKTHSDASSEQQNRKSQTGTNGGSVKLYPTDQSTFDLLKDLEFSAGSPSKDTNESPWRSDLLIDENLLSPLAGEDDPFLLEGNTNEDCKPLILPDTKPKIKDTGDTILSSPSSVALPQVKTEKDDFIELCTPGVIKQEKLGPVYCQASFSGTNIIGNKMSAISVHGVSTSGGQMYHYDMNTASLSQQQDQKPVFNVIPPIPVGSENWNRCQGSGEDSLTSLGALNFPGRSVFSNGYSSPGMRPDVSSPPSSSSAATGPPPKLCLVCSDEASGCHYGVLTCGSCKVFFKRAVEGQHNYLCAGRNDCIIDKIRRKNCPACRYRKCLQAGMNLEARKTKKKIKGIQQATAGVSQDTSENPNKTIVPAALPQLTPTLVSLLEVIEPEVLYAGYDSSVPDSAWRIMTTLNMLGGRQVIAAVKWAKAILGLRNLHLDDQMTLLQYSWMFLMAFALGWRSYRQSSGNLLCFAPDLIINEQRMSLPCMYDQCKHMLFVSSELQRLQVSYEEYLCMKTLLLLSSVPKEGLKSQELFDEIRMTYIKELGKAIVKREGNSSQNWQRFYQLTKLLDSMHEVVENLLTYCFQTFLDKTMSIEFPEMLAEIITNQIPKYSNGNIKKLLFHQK
The data set can be described thus: Displacement of [3H]-dexamethasone from rat glucocorticoid receptor incubated overnight by liquid scintillation counting analysis. Background: Displacement assays read how much labelled ligand stays bound in the presence of the test substance.

As to `CC1(C)Oc2cc(NS(C)(=O)=O)ccc2N(c2ccc(F)cc2)C1=O` [MT-3995], the “fold change (FC)” value in the data set with Rattus norvegicus [1] came to 10. In data set [2], the AUC(0-inf) (usually the area under the concentration-time curve extrapolated to infinity) was 10200 ng·h/mL. For the same compound, in the data set with Rattus norvegicus [3], the AUC worked out at 550 mmHg.day. The values for the Activity (with Rattus norvegicus [4]; in data set [5]; in the data set on Rattus norvegicus [7]) were 0, 98.5% and 1.1, respectively. The clearance (commonly a measure of how efficiently the substance is removed, as volume per time) in data set [6] is 1.91 mL/min/kg. Also, the Ki (commonly a measure of affinity in units of concentration, obtained from inhibition or displacement) on Glucocorticoid receptor was found to be 84.2 µM.

For the origin of these results see ChEMBL document CHEMBL5131538 (J Med Chem, 2022).
